{"source": "patent US20160184459A1", "about": "“CANCER CELL SPECIFIC IMAGING PROBES AND METHODS OF USE” (THE RESEARCH FOUNDATION FOR THE STATE UNIVERSITY OF NEW YORK, priority 2013, published 2016)", "key": {"[1]": {"system": "HCT116 xenograft tumor", "experiment": "HCT116 mouse xenograft model", "format": "in vivo", "description": "FIG. 20. In vivo anticancer efficacy of BKAc-Puro. […] HCT116 cells were implanted subcutaneously into female nude mice. When the developed tumors reached 200 mm^3, animals were intraperitoneally injected by the indicated dose of the compound or vehicle control (DMSO). Tumor volume was estimated by the equation vol=(a×b^2)/2, where vol, a, and b represent volume, the length of the major axis, and the length of the minor axis, respectively. Arrows indicate the time points of treatment. (b) Body weight change during the treatment in a. Value is expressed in percent change compared to the day of the first treatment.\nFIG. 21. HCT116 cells were implanted subcutaneously into female nude mice. When palpable tumors reached 50-150 mm^3, animals were randomized and treated by the indicated dose of the compound or vehicle control (DMSO) via intraperitoneal injection. Tumor incidence is presented as number of mice developed tumor (volume >300 mm^3) after 2 weeks of daily treatment/number of mice treated. Tumor volume was estimated by the equation vol=(a×b^2)/2, where vol, a, and b represent volume, the length of the major axis, and the length of the minor axis, respectively.\n(§1) FIG. 29. In vivo anticancer efficacy of Boc-KAc-Puro. (a) Tumor growth in HCT116 xenograft model. Animals were treated with acidified saline control or Boc-KAc-Puro (50 or 150 mg/kg). Values are mean±s.d. (n=5 mice per group). *** P<0.001 compared to the control group. P=0.000716 (50 mg/kg), P=0.000349 (150 mg/kg) at 10 d. (b) Body weight change during the treatment in a and was monitored as a sign of general animal health. Values are mean±s.d. (c) Tumor growth in HT29 xenograft model. Animals were treated with acidified saline control or Boc-KAc-Puro (150 mg/kg). Values are mean±s.d. (n=5 mice per group). *** P<0.001 compared to the control group. P=0.000514 (150 mg/kg) at 10 d. (d) Body weight change during the treatment in c was monitored as a sign of general animal health. Values are mean±s.d. (e) Levels of Puro-incorporated proteins were monitored by immunoblotting. Animals bearing HT29 xenograft tumor were given daily intraperitoneal administration of the prodrug at 150 mg/kg/dose for 3 d, followed by preparation of tissue lysates. The lower panel (anti-α-Tubulin) served as a loading control.\nTo assess the in vivo efficacy of the compounds, mouse xenograft model using HCT116 colon cancer cells is used as an established evaluation method for the anticancer drugs against cancer (Cao, Z. A. et al. 2006). The growth inhibitory effects of the compounds on size-matched xenografts are examined by subcutaneous implantation of HCT116 cells into nude mice. HCT116 cells are injected subcutaneously and allowed to develop palpable tumors (50-150 mm^3) before initiation of drug administration. Mice (5-10 animals per group) are treated with the vehicle (DMSO or PBS) or the prodrugs by intraperitoneal administration. Dose ranges are determined by the dose escalation studies of the prodrugs. […] Relative tumor volume is calculated by dividing tumor volume by that on day 0 (the day of treatment initiation). […] Statistical significance of the data is evaluated by performing one-way ANOVA with post hoc Turkey's test to compare means (GraphPad Prism software). The efficacy of the compounds is further evaluated in a similar manner by using other cancer cell lines. […]"}, "[2]": {"system": "Puro incorporation in tumors, muscle and kidney", "experiment": "Immunoblotting of Puro-labeled proteins in tissue lysates of HT29 xenograft mice", "format": "in vivo, mouse", "settings": "150 mg/kg/dose daily intraperitoneal for 3 d", "description": "as §1, with “Animals bearing HT29 xenograft tumor were given daily intraperitoneal administration of the prodrug at 150 mg/kg/dose for 3 d, followed by preparation of tissue lysates. The lower panel (anti-α-Tubulin) served as a loading control.” left out\nCultured cells or tissue samples were sonicated in RIPA lysis buffer (1% NP-40, 0.1% SDS, 50 mM Tris-HCl pH 7.4, 150 mM NaCl, 0.5% sodium deoxycholate, 1 mM EDTA) supplemented with PMSF and protease inhibitor cocktail (Roche) on ice followed by clarification. […] Proteins of interest were detected with anti-mouse secondary antibody by chemiluminescence (ECL Kit, GE Healthcare Life Sciences). […]"}, "[3]": {"system": "malignant cell lines with high HDAC and CTSL activity (COGA-10, HCA-7, HT29, HCT116)", "experiment": "MTS cell viability assay, malignant colon cancer cell lines", "format": "cell-based", "settings": "Homo sapiens, 120 h, 5 d, read-out: IC50, inhibition of cell viability", "description": "FIG. 13. Inhibition of cell viability by BKAc-Puro is presented in dose-response curve format for the same cell lines as in FIG. 8. The cell lines were treated with DMSO or the indicated doses of agent (4.22, 8.44, 16.9, 33.8, 67.5, or 135 μM) for 5 d followed by MTS assay. Data represent mean values of triplicate measurements±s.d. (n=3). IC50 values were fit by logistic regression.\nCell number was determined by cell counting using improved Neubauer hemacytometer. Cell viability was calculated as the number of viable cells divided by the total number of cells using Trypan Blue Stain (Invitrogen) to distinguish non-viable cells. Data were obtained from duplicated samples with quadruplicate measurements. MTS based cell viability assay was performed using CellTiter 96 Aqueous Cell Proliferation Assay (Promega) according to the manufacturer's instruction. […] After additional 2-3 h incubation, the absorbance of the formazan at 490 nm was measured by the microplate reader. […] Determination of non-viable cells using PI staining was performed by adding 1 μg/ml of PI solution (Sigma) to the cell culture, prior to the examination under fluorescence microscopy (Axiovert 3, Carl Zeiss) through a×32 objective equipped with a digital imaging processor (Infinity 3, Lumenera)."}}}
{"smiles": "COc1ccc(CC(NC(=O)C(CCCCNC(C)=O)NC(=O)OC(C)(C)C)C(=O)NC2C(O)[C@H](n3cnc4c(N(C)C)ncnc43)O[C@@H]2CO)cc1", "note": "(stereo partly drawn) [BKAc-Puro, N-[3′-(α-Amino-p-methoxyhydrocinnamamido)-3′-deoxy-N,N-dimethyldenosinyl)-N-α-(t-butoxycarbonyl]-N-ε-acetyl-L-lysineamide]", "values": [{"measurement": "Tumors developed at 200 mg/kg", "setting": "[1]; 200 mg/kg, intraperitoneal, 2 weeks daily", "result": "no tumors greater than 300 mm^2 were observed"}, {"measurement": "Tumor growth", "setting": "[1]; 50 and 150 mg/kg/dose daily intraperitoneally for 10 d", "result": "dose-dependent inhibition of tumor growth"}, {"measurement": "Tumor mass in comparison to acidified saline control", "setting": "[1]; 50 and 150 mg/kg/dose, 10 d, P<0.001", "result": "significantly smaller tumor mass"}, {"measurement": "Tumor incidence", "setting": "[1]; intraperitoneal, 2 weeks of daily treatment", "result": "inhibition of tumor incidence"}, {"measurement": "Tumor growth", "setting": "[1]; intraperitoneal, treatment from tumors of 200 mm^3, DMSO vehicle control", "result": "inhibition of tumor growth"}, {"measurement": "Intensity of Puro incorporation, tumors versus normal muscle and kidney", "setting": "[2]", "result": "substantially greater in tumors"}, {"measurement": "IC50", "setting": "[3]", "result": "~10", "unit": "µM"}]}
